US20230146233A1, “A CLASS OF POLYCYCLIC COMPOUNDS INHIBITING RNA HELICASE DHX33 AND THE APPLICATION THEREOF” (Shenzhen KeYe Life Technologies, Co., Ltd, priority 2020, published 2023)
pIC50: −log10 of the molar value.

Each molecule was assayed on U251-MG cells (assay: Half-maximal cell-inhibitory concentration on U251-MG cells (CCK-8)). Settings: Homo sapiens, U-251, U251-MG cells (DHX33-overexpressing cancer cell strain), 48 hours, read-out: IC50 (half-maximal inhibitory concentrations of compounds on U251-MG cells).
Assay type: cell-based
Experimental: U251-MG cells were purchased from the cell bank of the Chinese Academy of Sciences. Cells were cultured in MEM medium containing 10% fetal bovine serum (FBS), 2 mM L-glutammie, streptomycmn and penicillin. The growth conditions were set as follows: a humidified cell incubator (37° C., 5% CO2). Cells were passaged every 3 days and were discarded after 10 passages.
U251-MG cells (a […]-overexpressing cancer cell strain) were seeded on a 96-well plate at 1×10^4 cells/100 μl/well. After the cells were completely attached, the compounds were added to the cell culture medium at a concentration of 5 nM, 10 nM, 25 nM, 50 nM, 100 nM, […], 500 nM, 1000 nM, 2000 nM, […] or 20 μM, and the resulting mixture was uniformly mixed with a multichannel pipette. After the cells were incubated with the compound for 48 hours, CCK-8 reagent (Yeasen Biotechnology (Shanghai) Co., Ltd.) was added to the medium in the 96-well plate in accordance with the standard procedure. After being incubated for 2 hours, the plate was read with a microplate reader (OD=450 nm). The experiment was repeated three times, the inhibition curve of the compound at different concentrations was plotted, and the half-maximal inhibitory concentration (IC50) of the compound was calculated.

Row | pIC50 | Compound
1 | > 7.00 | Cc1cc(C#N)c(-n2c(C)cc(/C=C(\C#N)c3nc4cc(Cl)ncc4[nH]3)c2C)s1 [AB24341, (E)-2-(3-(2-(6-chloro-3H-imidazo[4,5-c]pyridin-2-yl)-2-cyanovinyl)-2,5-dimethyl-1H-pyrrol-1-yl)-5-methylthiophene-3-carbonitrile]
2 | 4.70 to 5.30 | CC(=O)Nc1ccc(-n2c(C)cc(/C=C(\C#N)c3nc4ccccc4[nH]3)c2C)cc1 [AB24267]
3 | 6.00 to 7.00 | COc1cc2cc(/C(C#N)=C/c3cc(C)n(-c4sc(C)cc4C#N)c3C)[nH]c2cn1 [AB24342, (Z)-2-(3-(2-cyano-2-(5-methoxy-1H-pyrrolo[2,3-c]pyridin-2-yl)vinyl)-2,5-dimethyl-1H-pyrrol-1-yl)-5-methylthiophene-3-carbonitrile]
4 | 6.00 to 7.00 | COC(=O)c1c(-n2c(C)cc(/C=C(\C#N)c3nc4cc(OC)ncc4[nH]3)c2C)sc(C)c1C [AB24316]
5 | 4.70 to 5.30 | Cc1cc(/C=C(\C#N)c2nc3ccccc3[nH]2)c(C)n1-c1ccc(C#N)cc1 [AB24223]
6 | > 7.00 | COc1cc2nc(/C(C#N)=C/c3cc(C)n(-c4sc(C)c(C)c4C#N)c3C)[nH]c2cn1 [AB24308, (E)-2-(3-(2-cyano-2-(6-methoxy-3H-imidazo[4,5-c]pyridin-2-yl)vinyl)-2,5-dimethyl-1H-pyrrol-1-yl)-4,5-dimethylthiophene-3-carbonitrile]
7 | 4.70 to 5.30 | COc1ccc2[nH]c3cc(-c4cc(C)n(-c5sc(C)cc5C#N)c4C)ccc3c2c1 [AB24375, 2-(3-(6-methoxy-9H-carbazol-2-yl)-2,5-dimethyl-1H-pyrrol-1-yl)-5-methylthiophene-3-carbonitrile]
8 | > 7.00 | CCc1cc(C#N)c(-n2c(C)cc(/C=C(\C#N)c3nc4cc(OC)ncc4[nH]3)c2C)s1 [AB24317, (E)-2-(3-(2-cyano-2-(6-methoxy-3H-imidazo[4,5-c]pyridin-2-yl)vinyl)-2,5-dimethyl-1H-pyrrol-1-yl)-5-ethylthiophene-3-carbonitrile]
9 | 5.30 to 6.00 | COc1nccc2nc(/C(C#N)=C/c3cc(C)n(-c4sc(C)c(C)c4C#N)c3C)[nH]c12 [AB24309]
10 | 5.30 to 6.00 | CCOC(=O)c1cc(C#N)c(-n2c(C)cc(/C=C(\C#N)c3nc4cc(OC)ncc4[nH]3)c2C)s1 [AB24320]
11 | 5.30 to 6.00 | COc1ccc2nc3cc(-c4cc(C)n(-c5sc(C)cc5C#N)c4C)ccc3n2c1 [AB24385, 2-(3-(2-methoxybenzo[4,5]imidazo[1,2-a]pyridin-7-yl)-2,5-dimethyl-1H-pyrrol-1-yl)-5-methylthiophene-3-carbonitrile]
12 | 5.30 to 6.00 | COc1cc2nc(/C(C#N)=C/c3cc(C)n(-c4sc(-c5ccncc5)cc4C#N)c3C)[nH]c2cn1 [AB24338]
13 | 5.30 to 6.00 | Cc1ccc2nc(/C(C#N)=C/c3cc(C)n(-c4oc(C)c(C)c4C#N)c3C)[nH]c2c1 [AB24203, (E)-2-(3-(2-cyano-2-(6-methyl-1H-benzo[d]imidazol-2-yl]vinyl)-2,5-dimethyl-1H-pyrrol-1-yl)-4,5-dimethylfuran-3-carbonitrile]
14 | > 7.00 | COc1cc2nc(/C(C#N)=C/c3cc(C)n(Cc4ccccn4)c3C)[nH]c2cn1 [AB29507, (E)-3-(2,5-dimethyl-1-(pyridin-2-ylmethyl)-1H-pyrrol-3-yl)-2-(6-methoxy-3H-imidazo[4,5-c]pyridin-2-yl)acrylonitrile]
15 | 5.30 to 6.00 | Cc1oc(-n2c(C)cc(/C=C(\C#N)c3nc4ccc(Cl)cc4[nH]3)c2C)c(C#N)c1C [AB24201, (E)-2-(3-(2-(6-chloro-1H-benzo[d]imidazol-2-yl)-2-cyanovinyl)-2,5-dimethyl-1H-pyrrol-1-yl)-4,5-dimethylfuran-3-carbonitrile]
16 | 4.70 to 5.30 | Cc1oc(-n2c(C)cc(/C=C(\C#N)c3nc4ccc(N)cc4[nH]3)c2C)c(C#N)c1C [AB24221, (E)-2-(3-(2-(6-amino-1H-benzo[d]imidazol-2-yl)-2-cyanovinyl)-2,5-dimethyl-1H-pyrrol-1-yl)-4,5-dimethylfiran-3-carbonitrile]
17 | > 7.00 | COc1cc2nc(/C(C#N)=C/c3cc(C)n(Cc4ccncc4)c3C)[nH]c2cn1 [AB29512, (E)-3-(2,5-dimethyl-1-(pyridin-4-ylmethyl)-1H-pyrrol-3-yl)-2-(6-methoxy-3H-imidazo[4,5-c]pyridin-2-yl)acrylonitrile]
18 | 6.00 to 7.00 | COC(=O)c1c(-n2c(C)cc(/C=C(\C#N)c3nc4ccccc4[nH]3)c2C)sc(C)c1C [AB24273, methyl (E)-2-(3-(2-(1H-benzo[d]imidazol-2-yl)-2-cyanovinyl)-2,5-dimethyl-1H-pyrrol-1-yl)-4,5-dimethylthiophene-3-carboxylate]
19 | 5.30 to 6.00 | COc1cncc2nc(/C(C#N)=C/c3cc(C)n(-c4sc(C)c(C)c4C#N)c3C)[nH]c12 [AB24302, (E)-2-(3-(2-cyano-2-(7-methoxy-1H-imidazo[4,5-c]pyridyl-2-yl)vinyl)-2,5-dimethyl-1H-pyrrol-1-yl)-4,5-dimethylthiophene-3-carbonitrile]

Row | pIC50 | Compound
20 | 4.70 to 5.30 | COc1ccc2nc(NC(=O)c3cc(C)n(Cc4cnn(C)c4)c3C)[nH]c2c1 [AB29513, N-(6-methoxy-1H-benzo[d]imidazol-2-yl)-2,5-dimethyl-1-((1-methyl-1H-pyrazol-4-yl)methyl)-1H-pyrrole-3-carboxamide]
21 | 4.70 to 5.30 | Cc1cc(/C=C(\C#N)c2nc3ccccc3[nH]2)c(C)n1-c1csc(C#N)c1 [AB24276]
22 | 6.00 to 7.00 | COc1ccc2nc(NC(=O)c3cc(C)n(-c4sc(C)nc4C#N)c3C)[nH]c2c1 [AB29509, 1-(4-cyano-2-methylthiazol-5-yl)-N-(6-methoxy-1H-benzo[d]imidazol-2-yl)-2,5-dimethyl-1H-pyrrole-3-carboxamide]
23 | 5.30 to 6.00 | COc1cc2nc(/C(C#N)=C/c3cc(C)n(-c4ccncc4Cl)c3C)[nH]c2cn1 [AB24289, (E)-3-(1-(3-chloropyridin-4-yl)-2,5-dimethyl-1H-pyrrol-3-yl)-2-(6-methoxy-3H-imidazo[4,5-c]pyridin-2-yl)acryonitrile]
24 | > 7.00 | COc1cc2nc(/C(C#N)=C/c3cc(C)n(-c4sc(C5CC5)cc4C#N)c3C)[nH]c2cn1 [AB24324, (E)-2-(3-(2-cyano-2-(6-methoxy-3H-imidazo[4,5-c]pyridin-2-yl)vinyl)-2,5-dimethyl-1H-pyrrol-1-yl)-5-cyclopropylthiophene-3-carbonitrile]
25 | 6.00 to 7.00 | COC(=O)c1cc(Cl)sc1-n1c(C)cc(/C=C(\C#N)c2nc3cc(OC)ncc3[nH]2)c1C [AR24318]
26 | 4.70 to 5.30 | Cc1oc(-n2c(C)cc(/C=C(\C#N)c3nc4ccc([N+](=O)[O-])cc4[nH]3)c2C)c(C#N)c1C [AB24217, (E)-2-(3-(2-cyano-2-(6-nitro-1H-benzo[d]imidazol-2-yl)vinyl)-2,5-dimethyl-1H-pyrrol-1-yl)-4,5-dimethylfuran-3-carbonitrile]
27 | 6.00 to 7.00 | COc1cc2nc(/C(C#N)=C/c3cc(C)n(-c4sc(C)cc4C#N)c3C)n(C)c2cn1 [AB24352, (E)-2-(3-(2-cyano-2-(6-methoxy-3-methyl-3H-imidazo[4,5-c]pyridin-2-yl)vinyl)-2,5-dimethyl-1H-pyrrol-1-yl)-5-methylthiophene-3-carbonitrile]
28 | 4.70 to 5.30 | Cc1cc(/C=C(\C#N)c2nc3ccccc3[nH]2)c(C)n1-c1ccccn1 [AB24258]
29 | 4.70 to 5.30 | Cc1cc(/C=C(\C#N)c2nc3ccccc3[nH]2)c(C)n1-c1ccccc1C#N [AB24227]
30 | 4.70 to 5.30 | COc1ccnc2nc(/C(C#N)=C/c3cc(C)n(-c4sc(C)c(C)c4C#N)c3C)[nH]c12 [AB24310, (E)-2-(3-(2-cyano-2-(7-methoxy-1H-imidazo[4,5-b]pyridin-2-yl)vinyl)-2,5-dimethyl-1H-pyrrol-1-yl)-4,5-dimethylthiophene-3-carbonitrile]
31 | 4.70 to 5.30 | Cc1nn(-c2cccc(C(F)(F)F)c2)c(C)c1/C=C(\C#N)c1nc2ccccc2[nH]1 [AB24285, (E)-2-(1H-benzo[d]imidazol-2-yl)-3-(3,5-dimethyl-1-(3-(trifluoromethyl)phenyl)-1H-pyrazol-4-yl)acrylonitrile]
32 | > 7.00 | COc1cc2nc(/C(C#N)=C/c3cc(C)n(Cc4ccco4)c3C)[nH]c2cn1 [AB24397, (E)-3-(1-(furan-2-ylmethyl)-2,5-dimethyl-1H-pyrrol-3-yl)-2-(6-methoxy-3H-imidazo[4,5-c]pyridin-2-yl)acrylonitrile]
33 | > 7.00 | COc1cc2nc(/C(C#N)=C/c3cc(C)n(Cc4ccccc4)c3C)[nH]c2cn1 [AB24398, (E)-3-(1-benzyl-2,5-dimethyl-1H-pyrrol-3-yl)-2-(6-methoxy-3H-imidazo[4,5-c]pyridin-2-yl)acrylonitrile]
34 | 5.30 to 6.00 | COc1cc2nc(/C(C#N)=C/c3cc(C)n(-c4ccncc4C)c3C)[nH]c2cn1 [AB24295, (E)-3-(2,5-dimethyl-1-(3-methylpyridin-4-yl)-1H-pyrrol-3-yl)-2-(6-methoxy-3H-imidazo[4,5-c]pyridin-2-yl)acrylonitrile]
35 | 5.30 to 6.00 | Cc1oc(-n2c(C)cc(/C=C(\C#N)c3nc4cc(Cl)cc(Cl)c4[nH]3)c2C)c(C#N)c1C [AB24239]
36 | 6.00 to 7.00 | COc1cc2nc(NC(=O)c3cc(C)n(-c4sc(C)nc4C#N)c3C)[nH]c2cn1 [AB29502, 1-(4-cyano-2-methylthiazol-5-yl)-N-(6-methoxy-3H-imidazo[4,5-c]pyridin-2-yl)-2,5-dimethyl-1H-pyrrole-3-carboxamide]
37 | 4.70 to 5.30 | Cc1csc(-n2c(C)cc(/C=C(\C#N)c3nc4ccccc4[nH]3)c2C)c1C#N [AB24277]
